Assay results from PubChem BioAssay (NCI).
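Step 1: Grow cells in 96-well plates. Step 2: Expose to compound for 48 hours at 5 concentrations. Step 3: Interpolate endpoints linearly; if unreached, use highest concentration. TGI: total growth inhibition.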

Legend:
Test in all cases: NCI-60 cell line screen, 48 h
XF 498 CNS = tested on: XF 498 CNS
M19-MEL melanoma = tested on: M19-MEL melanoma
KM20L2 colon = tested on: KM20L2 colon
DMS 273 small cell lung = tested on: DMS 273 small cell lung
HOP-18 NSCLC = tested on: HOP-18 NSCLC
SNB-78 CNS = tested on: SNB-78 CNS
RXF-631 renal = tested on: RXF-631 renal
DMS 114 small cell lung = tested on: DMS 114 small cell lung

Row | SMILES | TGI (XF 498 CNS) | TGI (M19-MEL melanoma) | TGI (KM20L2 colon) | TGI (DMS 273 small cell lung) | TGI (HOP-18 NSCLC) | TGI (SNB-78 CNS) | TGI (RXF-631 renal) | TGI (DMS 114 small cell lung)
1 | CCOC(=O)c1cn2c([nH]c3ccccc32)c(C#N)c1=O | > 100 µM | > 100 µM | > 100 µM | > 100 µM | > 100 µM | > 100 µM | > 100 µM | 
2 | COC1=CC(=O)c2ccccc2C1(C)C1=NC(C)(C)CO1 (centres undefined) | > 100 µM | > 100 µM | > 100 µM | > 100 µM | > 100 µM |  | > 100 µM | > 100 µM
3 | CC(C)c1cccc(C(C)C)c1NC1=CC(=O)C(=O)c2ccccc21 |  | 43.1 µM | > 100 µM | > 100 µM | > 100 µM | > 100 µM | > 100 µM | 
4 | O=C(/C=C/c1ccc(Cl)c(Cl)c1)C1CCC(Cl)CC1 (centres undefined) | 33 µM | 31.7 µM | 46.7 µM | 32.1 µM | 58.1 µM | 42.3 µM | 33.8 µM | 30.7 µM
5 | N#Cc1ccccc1Nc1ccccc1S | 40 µM | > 100 µM |  | > 100 µM | > 100 µM | > 100 µM | > 100 µM | 42.8 µM
6 | COC(=O)C(=O)C1CCCCC(C2=NC3NN=C(N)N3C2=O)C1=O (centres undefined) | > 100 µM | > 100 µM | > 100 µM | > 100 µM | > 100 µM |  | > 100 µM | > 100 µM
7 | COc1cc(C2C(Cl)C(=O)N2NC(=O)Cc2ccccc2)ccc1O (centres undefined) | > 100 µM | > 100 µM | > 100 µM | > 100 µM | > 100 µM | > 100 µM |  | > 100 µM
8 | O=C1C2Nc3ccccc3SC2C(=O)N1c1cccc([N+](=O)[O-])c1 (centres undefined) | > 100 µM | > 100 µM | > 100 µM | > 100 µM |  | > 100 µM | > 100 µM | > 100 µM
9 | CCCCCC(=O)Cc1cc(OC)cc2c1C(=O)Oc1cc(O)c(C(=O)O)c(CC(=O)CCCCC)c1O2 | > 100 µM | 69.6 µM | > 100 µM | > 100 µM |  | > 100 µM | > 100 µM | > 100 µM
10 | Cn1c2c(cc(-c3ccccc3)c1=O)COc1ccccc1-2 | 26.1 µM | 64.2 µM | > 100 µM | 43.8 µM | > 100 µM | > 100 µM |  | 36.2 µM
11 | C=C1CC(C/C=C(\C)CC2CC(=C)C(=O)O2)OC1=O (centres undefined) | > 100 µM | > 100 µM | > 100 µM | > 100 µM | > 100 µM | > 100 µM | > 100 µM | > 100 µM
12 | CCCOCN1COCN=C1NC#N | > 100 µM | 88.1 µM | > 100 µM | 41.9 µM | > 100 µM | > 100 µM |  | 39.7 µM
13 | CO[C@H](c1ccccc1)[C@H](C)N(C)c1ccc2ccccc2c1C1=NC(C)(C)CO1 | 33.5 µM | 36.6 µM | 27.4 µM | 39.2 µM | 31.9 µM |  | 39.8 µM | 33.7 µM
14 | CO[C@@]12CC(=O)/C(=C(O)\C=C\c3ccccc3)C(=O)[C@]1(OC)Cc1ccccc1O2 | > 100 µM | > 100 µM | 49.2 µM |  | > 100 µM | > 100 µM | > 100 µM | > 100 µM
15 | CCOC(=O)c1c(C(F)(F)F)oc2c1ccc1nc3nonc3nc12 | 30.8 µM | 38.2 µM | 36.5 µM | 34.4 µM | 26 µM | 23.2 µM | 37.6 µM | 55.9 µM
16 | COc1ccc(/C(Cl)=C/c2ccc(Cl)c(Cl)c2)cc1 | 44.3 µM | > 100 µM | 63.7 µM | 67.5 µM | 88.9 µM | 72.1 µM |  | 43.8 µM
